{"source": "patent US9512180B2", "about": "“Compstatin analogs” (THE REGENTS OF THE UNIVERSITY OF CALIFORNIA, priority 2012, dated 2016)", "key": {"[1]": {"test_system": "complement alternative pathway (AP)", "assay": "Hemolytic assay (rabbit erythrocyte lysis in human serum)", "format": "cell-based", "conditions": "for IC50: Table 9, means from three independent experiments, read-out: IC50, Hemolytic assay", "protocol": "Inhibition of complement was also measured via lysis of erythrocytes. Rabbit erythrocytes (Complement Technology Inc., Tyler, Tex., USA) were washed in PBS and resuspended in veronal-buffered saline with 5 mM MgCl2 and 10 mM EGTA (VBS-MgEGTA). Peptide and serum dilutions were prepared as described above, and 1×10^7 erythrocytes were added to each serum/peptide mixture. Erythrocytes diluted in sterile deionized water and in VBS-MgEGTA were used as positive and negative controls for lysis, respectively. Plates were incubated for 20 minutes at 37° C., and centrifuged at 2500×g for 10 minutes.\nIn all assays, MgEGTA was used to chelate Ca′ ions required for classical/lectin pathway complement activation, while providing Mg′ necessary for AP activation. ELISAs allow for direct detection of C3b and C5b-9 formed during AP activation, while erythrocyte lysis assays provide a functional assessment of AP-mediated hemolysis in serum."}, "Human fetal RPE cells": {"test_system": "Human fetal RPE cells", "assay": "RPE cell-based assay: confocal analysis of deposit-associated C5b-9 (normalized to ApoE)", "conditions": "peptide 1 μM; for deposit-associated C5b-9 (C5b-9/ApoE) relative to positive control: ~24 hrs, mean±S.E.M., RPE cultures of three donors; for Confocal Imaging % of positive control: deposit-associated C5b-9 normalized to ApoE, Mean (S.E.M.)", "protocol": "The in vitro drusen biogenesis model was employed. Human fetal RPE cells (Advanced Bioscience Resources, Alameda, Calif.) were cultured on Millipore HA porous supports (Millipore, Cat # PIHA 01250) in Miller medium (Maminishkis et al., 2006) supplemented with 5% fetal calf serum (FCS). Cultures derived from three different donor eyes were employed. Cells were rinsed with warm, sterile PBS and the insert membrane was excised with a scalpel and cut into small (˜4 mm^2) pieces which were placed in wells of a 96-well plate. To minimize effects of inter-culture variability, samples prepared from a single membrane were utilized for each experiment. The samples were rinsed in PBS and then exposed individually to the library of compstatin family peptides at 1 μM in FCS-free Miller medium containing 10% human complement serum (Innovative Research, Cat # IPLA-CSER AB, Lot # L12402). In preliminary experiments, compstatin family Peptides I, III, VI, VII, VIII, IX, and Parent (Table 7), were tested in the RPE cell assay at 100 μM and titrated by C5b-9 ELISA over a concentration range of 0.04-130 μM. […] Also from this assessment, Peptide VI, as well as Peptides I and III, were selected for further studies. Peptides I and III were chosen for comparative studies to Peptide VI, because they contain an arginine residue at position 1. The goal was to determine whether peptides containing arginine at position −1 (Peptide VI) or at position 1 (Peptides I and III) were potent complement inhibitors using the RPE cell assay and had improved aqueous solubility compared to previously known potent analogs. Negative control cells were exposed to Miller medium+5% FCS; positive control cells were exposed to Miller medium+10% human complement serum without inhibitory peptides. Experimental and control medium/inhibitor solutions were pre-mixed on a rocker at room temperature for 30 min, then warmed to 37° C., prior to placement on the samples and incubation for ˜24 hrs at 37° C. in a 7.0% CO2 incubator. Following the incubation period, the medium was removed and stored frozen prior to ELISA analysis. The cell/membrane samples were rinsed in PBS, fixed in cold 4% paraformaldehyde (PFA) in PBS for 20 min, and stored in 0.4% PFA until use in immunohistochemical assays.\nFixed samples were rinsed several times in PBS, embedded in 10% agarose (Type XI, Sigma-Aldrich, Cat # A3038) and sectioned at 100 μm on a vibratome. Sections were blocked with normal donkey serum ( 1/20 in PBT: PBS containing 0.5% bovine serum albumin and 0.1% Triton X-100) overnight at 4° C. The sections were then co-incubated in two primary antibodies (polyclonal goat anti-ApoE, Millipore Cat # AB947; 1/1000 in PBT, and mouse monoclonal anti-05b-9 aEll, Dako Cat # M0777; 1/200 in PBT) overnight at 4° C., then rinsed in PBT and co-incubated in secondary antibodies (Alexa Fluor 546-conjugated donkey anti-goat IgG and Alexa Fluor 488-conjugated donkey anti-mouse IgG, both 1/200 in PBT; Life Technologies Cat # A-11056 and # A-21202) overnight at 4° C. Sections were rinsed in PBT, stained with Hoechst 33342 (Life Technologies Cat # H3570), and mounted on slides with Prolong Gold (Life Technologies Cat # P36930).\nSamples were imaged on an Olympus FV1000 confocal laser scanning microscope. A total of 154 single-plane images were acquired at a resolution of 1024×768 pixels and the digital image files were saved in 24-bit tiff format. Digital image analysis was performed with MetaMorph software (Molecular Devices, Sunnyvale, Calif.). For the analysis, a standard measurement region, which included both the RPE cell monolayer and all of the adjacent sub-cellular deposits, was applied to each image. The Set Threshold Color Tool was utilized to analyze each color channel separately; the threshold tool creates a boundary around the objects being measured (i.e., sub-cellular deposits) on the basis of color intensity. […]"}}, "note": "“And” between values parts separate entries of the source, which are not always exact repeats. Identical values can stand only once. Marks after values point to notes of the source that are not given here. Bridge positions count the residues as written; N and C are the ends. Square brackets hold non-standard residues; d marks the D form. Peptide text beside a SMILES is read from it. Trp(1-Me) = Cn1cc(C[C@H](N)C(=O)O)c2ccccc21"}
{"smiles": "CC(=O)N[C@@H](CCCNC(=N)N)C(=O)N[C@H]1CSSC[C@@H](C(=O)N[C@H](C(N)=O)[C@@H](C)O)NC(=O)[C@H](CCCNC(=N)N)NC(=O)[C@H](Cc2c[nH]cn2)NC(=O)[C@H](C)NC(=O)CNC(=O)[C@H](Cc2c[nH]c3ccccc23)NC(=O)[C@H](CC(=O)O)NC(=O)[C@H](CCC(N)=O)NC(=O)[C@H](Cc2c[nH]c3ccccc23)NC(=O)[C@H](C(C)C)NC1=O", "note": "[Peptide I, Ac- RCV WQDWGA HRCT-NH2] (Ac-RCVWQDWGAHRCT-NH2; disulfide 2-12)", "values": [{"measurement": "IC50", "setting": "[1]", "value": 3330, "unit": "nM"}, {"measurement": "deposit-associated C5b-9 (C5b-9/ApoE) relative to positive control", "setting": "Human fetal RPE cells; 10% human complement serum", "value": "55.3±12.3", "unit": "%"}, {"measurement": "Confocal Imaging % of positive control", "setting": "Human fetal RPE cells", "value": "55.27 (12.30)^a % of positive control"}]}
{"smiles": "CC[C@H](C)[C@H](NC(=O)[C@H](CO)NC(=O)[C@H](CCCNC(=N)N)NC(C)=O)C(=O)N[C@H]1CSSC[C@@H](C(=O)N[C@H](C(N)=O)[C@@H](C)O)NC(=O)[C@H](CCCNC(=N)N)NC(=O)[C@H](Cc2c[nH]cn2)NC(=O)[C@H](C)NC(=O)CNC(=O)[C@H](Cc2c[nH]c3ccccc23)NC(=O)[C@H](CC(=O)O)NC(=O)[C@H](CCC(N)=O)NC(=O)[C@H](Cc2cn(C)c3ccccc23)NC(=O)[C@H](C(C)C)NC1=O", "note": "[Peptide VI, Ac-RS-ICV meWQDWGA HRCT-NH2]", "values": [{"measurement": "IC50", "setting": "[1]", "value": 2230, "unit": "nM"}, {"measurement": "Deposit-associated C5b9 (green channel) immunofluorescence, Integrated Area", "setting": "Human fetal RPE cells; RPE 020207, 10% human complement serum, one value per image", "value": "86318 pixels and 70370 pixels and 77727 pixels and 91254 pixels and 59969 pixels"}, {"measurement": "deposit-associated C5b-9 (C5b-9/ApoE) relative to positive control", "setting": "Human fetal RPE cells; 10% human complement serum", "value": "14.9±5.6", "unit": "%"}, {"measurement": "Confocal Imaging % of positive control", "setting": "Human fetal RPE cells", "value": "14.85 (5.61) % of positive control"}]}
{"smiles": "CC(=O)N[C@@H](CCCNC(=N)N)C(=O)N[C@H]1CSSC[C@@H](C(=O)N[C@H](C(N)=O)[C@@H](C)O)NC(=O)[C@H](CCCNC(=N)N)NC(=O)[C@H](Cc2c[nH]cn2)NC(=O)[C@H](C)NC(=O)CNC(=O)[C@H](Cc2c[nH]c3ccccc23)NC(=O)[C@H](CC(=O)O)NC(=O)[C@H](CCC(N)=O)NC(=O)[C@H](Cc2cn(C)c3ccccc23)NC(=O)[C@H](C(C)C)NC1=O", "note": "[Peptide III, Ac- RCV meWQDWGA HRCT-NH2] (Ac-RCV[Trp(1-Me)]QDWGAHRCT-NH2; disulfide 2-12)", "values": [{"measurement": "IC50", "setting": "[1]", "value": 2250, "unit": "nM"}, {"measurement": "deposit-associated C5b-9 (C5b-9/ApoE) relative to positive control", "setting": "Human fetal RPE cells; 10% human complement serum", "value": "20.0±6.8", "unit": "%"}, {"measurement": "Confocal Imaging % of positive control", "setting": "Human fetal RPE cells", "value": "19.98 (6.84) % of positive control"}]}
{"smiles": "CC[C@H](C)[C@H](N)C(=O)N[C@H]1CSSC[C@@H](C(=O)N[C@H](C(N)=O)[C@@H](C)O)NC(=O)[C@H](CCCN=C(N)N)NC(=O)[C@H](Cc2cnc[nH]2)NC(=O)[C@H](Cc2cnc[nH]2)NC(=O)CNC(=O)[C@H](Cc2c[nH]c3ccccc23)NC(=O)[C@H](CC(=O)O)NC(=O)[C@H](CCC(N)=O)NC(=O)[C@H](C(C)C)NC(=O)[C@H](C(C)C)NC1=O", "note": "[Parent, ICV VQDWGH HRCT-NH2, reference compound]", "values": [{"measurement": "IC50", "setting": "[1]", "value": 12900, "unit": "nM"}, {"measurement": "difference in inhibition to other peptides", "setting": "[1]; hemolysis, versus Peptides I, III, VI, IX", "value": "4- to 6 fold"}, {"measurement": "deposit-associated C5b-9 (C5b-9/ApoE) relative to positive control", "setting": "Human fetal RPE cells; 10% human complement serum", "value": "83.2±5.9", "unit": "%"}, {"measurement": "Confocal Imaging % of positive control", "setting": "Human fetal RPE cells", "value": "83.19 (5.92) % of positive control"}]}
